Experimental data reported in patent US5349127A, “Expression of herbicide metabolizing cytochromes P450” (priority 1992, dated 1994).

System: transformed tobacco seedlings
Experiment: Tissue culture growth of transformed tobacco seed on 50 nM 10015 (Examples 22-23)
Type: in vivo, Nicotiana tabacum
Description: Growth medium was prepared from Murishige minimal organics medium (Gibco Laboratories, Grand Island, N.Y.), 8 g/l agar, supplemented with T vitamins (50 ppb biotin, 0.5 ppm pyridoxine HCl, 0.5 ppm thiamine HCl, 5 ppm nicotinic acid, 0.5 ppm folic acid, 2 ppm glycine, 100 ppm myo-inositol), sterilized and placed into sterile PlantCon plant tissue culture containers (Flow Laboratories, McLean, Va.). Tobacco seed obtained from the self-pollination of the primary transformants was surface sterilized by a treatment of not more than 30 min in 20% chlorine bleach, 0.1% sodium dodecyl sulfate, followed by rinsing in distilled water, and placed on the surface of the medium in the sterile containers. Following this treatment, the seed was allowed to germinate and grow under illumination (100 microeinsteins·m^-2 ·s^-1), at 22° C.
Because of the increased phytotoxicity of 10014 over that of 10015, plants grown in media containing 10015 should be growth inhibited if they contain an active cytochrome P450SU1. To test this, seeds of tobacco were grown in tissue culture media supplemented with 50 nM compound 10015, and the results are shown in Table 20.
This technique was used to analyze the progeny of plants transformed with both the gene for SU1 and FeS-B, and the results are shown in Table 21.
Plants transformed With the plasmids pSuFe31 and pSuFe41 were selected for high expression of P450SU1 and FeS-B mRNA by primer extension analysis as described in Example 19, and self pollinated to produce seed. This seed was germinated on medium containing 50 nM of compound 10015 and analyzed for sensitivity to this compound (indicating the presence of an active cytochrome P450SU1 enzyme) as in Example 22.

COc1cc(OC)nc(NC(=O)NS(=O)(=O)c2cccc3c2S(=O)(=O)N(C(C)C)C3)n1 [compound 10015]
Compound 10015 Sensitive (plants demonstrating result/total plants) (AGS502 (Control)): 0/9
Number 10015 Resistant (AGS502 (Control)): 32
Number 10015 Sensitive (AGS502 (Control)): 0
Ratio Sensitive/Resistant (AGS502 (Control)): 0
Compound 10015 Sensitive (plants demonstrating result/total plants) (SuFe21.2): 7/9
Compound 10015 Sensitive (plants demonstrating result/total plants) (SuFe21.5): 8/9
Compound 10015 Sensitive (plants demonstrating result/total plants) (SuFe21.6): 7/9
Compound 10015 Sensitive (plants demonstrating result/total plants) (SuFe21.7): 5/7
Compound 10015 Sensitive (plants demonstrating result/total plants) (SuFe21.8): 10/10
Number 10015 Resistant (SuFe31.13): 4
Number 10015 Sensitive (SuFe31.13): 12
Ratio Sensitive/Resistant (SuFe31.13): 3.0
Number 10015 Resistant (SuFe31.28): 5
Number 10015 Sensitive (SuFe31.28): 10
Ratio Sensitive/Resistant (SuFe31.28): 2.0
Number 10015 Resistant (SuFe41.34): 32
Number 10015 Sensitive (SuFe41.34): 0
Ratio Sensitive/Resistant (SuFe41.34): 0
Number 10015 Resistant (SuFe41.37): 8
Number 10015 Sensitive (SuFe41.37): 24
Ratio Sensitive/Resistant (SuFe41.37): 3.0
Number 10015 Resistant (SuFe41.56): 32
Number 10015 Sensitive (SuFe41.56): 0
Ratio Sensitive/Resistant (SuFe41.56): 0
Number 10015 Resistant (SuFe41.60): 15
Number 10015 Sensitive (SuFe41.60): 0
Ratio Sensitive/Resistant (SuFe41.60): 0
Compound 10015 Sensitive (plants demonstrating result/total plants) (SuFell.1): 2/9
Compound 10015 Sensitive (plants demonstrating result/total plants) (SuFell.11): 0/9
Compound 10015 Sensitive (plants demonstrating result/total plants) (SuFell.3): 0/8
Compound 10015 Sensitive (plants demonstrating result/total plants) (SuFell.4): 0/10
Compound 10015 Sensitive (plants demonstrating result/total plants) (SuFell.7): 0/9
Compound 10015 Sensitive (plants demonstrating result/total plants) (SuFell.8): 1/10
